# Measurements as given in article PMC5610242, “Stapled peptide inhibitors of RAB25 target context-specific phenotypes in cancer” (Nature Communications, 2017).
# Bridge positions count the residues as written; N and C are the ends. Square brackets hold non-standard residues; d marks the D form. Ends that are not written are not given here. Peptide text beside a SMILES is read from it. * marks the point of attachment. FITC = O=C1OC2(c3ccc(O)cc3Oc3cc(O)ccc32)c2ccc(NC(=S)*)cc21; monoethylene glycol = monoethylene glycol moiety; Met(O) = CS(=O)CC[C@H](N)C(=O)O; S5 = C=CCCC[C@](C)(N)C(=O)O; Nle = CCCC[C@H](N)C(=O)O; PEG = not defined here; βAla = NCCC(=O)O
# B1: GST-FIP3 (649–756) (domain or fragment, UniProt O75154 649-756, looked up)
# chain: MGLQEYHSRARESELEQEVRRLKQDNRNLKEQNEELNGQIITLSIQGAKSLFSTAFSESLAAEISSVSRDELMEAIQKQEEINFRLQDYIDRIIVAIMETNPSILEVK
# notes: Rab11-FIP3 (Class-II FIP), residues 649-756; vector pGEX 6P-1; no cleavage of GST is described; also called FIP3 protein (residues 649–756); source: BL21 cells, purified (glutathione sepharose, Superdex 75 gel filtration)
# What was measured:
# RAB25 = biological target: T1, RAB25 (Homo sapiens, UniProt P57735); experiment: Fluorescence polarization binding of FITC-labeled RFP peptides to RAB25; settings: FP, 30 min room temperature; for binding to RAB25 (in words): 25 nM FITC-RFP peptide; for Kd: 10 nM FITC-ligand, GST-RAB25, FP buffer pH 8.0 with 10 μM GTP, mean with 95% C.I., triplicate, read-out: apparent Kd (95% C.I.) RAB25
# T1 construct: GST-RAB25 (1–180) in pET41 Ek/LIC; made in house; host or cells: E. coli BL21
# T1 sequence (P57735 1-180): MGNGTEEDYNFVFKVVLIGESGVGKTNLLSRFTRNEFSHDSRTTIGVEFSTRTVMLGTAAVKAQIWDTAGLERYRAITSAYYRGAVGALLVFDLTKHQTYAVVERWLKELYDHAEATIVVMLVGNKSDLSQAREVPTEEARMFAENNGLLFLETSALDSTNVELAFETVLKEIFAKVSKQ
# Procedure: (§1) Fluorescence polarization assays were performed with for GST-RAB25 and GST-RAB11a to quantify binding to FITC-labeled unmodified and stapled RFP peptides. Initial fluorescence polarization measurements for RFP1−RFP13 were made by incubating FITC-RFP peptides (25 nM) with threefold dilutions of a given protein in FP buffer, consisting of 20 mM Tris pH 8.0, 150 mM NaCl, 5 mM MgCl2, 2 mM DTT, 10 μM GTP and 2% glycerol. Dilutions and incubations were performed in 96-well, black flat-bottom plates (Nunc) to a total volume of 100 μL, and equilibrated at room temperature for 30 min. Polarization was measured on a Spetramax-M5 multi-label plate reader (Molecular Devices) with λ ex = 485 nm and λ em = 525 nm. Polarization values were determined using the equation: P = (V − H)/(V + H), where P denotes polarization, V denotes vertical emission intensity and H represents horizontal emission intensity. Fraction bound was calculated using the equilibrium maximum polarization value obtained for a given protein among ligands, to which background-subtracted fluorescence polarization values were internally normalized. Fluorescence polarization measurements for FITC-RFP14, 24, 26, 31, and 32 were performed as detailed above with the exception that 10 nM FITC-ligand was used.
# [1] = Circular dichroism spectroscopy and thermal denaturation; assay type: physicochemical; settings: 50 μM peptide in deionized water, 190–260 nm, room temperature
# Procedure: Circular dichroism spectroscopy experiments were performed on a Jasco J-170 using a quartz cuvette (path length: 0.1 cm). Peptides were dissolved to 50 μM in deionized water and CD measurements were recorded at one nm increments between 190 and 260 nm, at room temperature. Thermal denaturation experiments were performed by recording CD absorbance at 222 nm at one-degree increments from 10 to 90 °C using a thermostat-controlled cuvette chamber. Raw denaturation data were fit to sigmoidal curves with Prizm 5 software, and the half-maximal temperature was reported as the peptide T m.
# [2] = biological target: T2, RAB11a (activated Q70L mutant) (Homo sapiens, UniProt P62491, Q70L); experiment: Fluorescence polarization binding of FITC-labeled RFP peptides to RAB11a; settings: FP, 30 min room temperature; for binding to RAB11a (in words): 25 nM FITC-RFP peptide
# T2 construct: GST-RAB11a (1–173, Q70L mutant) in pGEX5x-1; made in house; host or cells: E. coli BL21
# T2 sequence (P62491 1-173 Q70L): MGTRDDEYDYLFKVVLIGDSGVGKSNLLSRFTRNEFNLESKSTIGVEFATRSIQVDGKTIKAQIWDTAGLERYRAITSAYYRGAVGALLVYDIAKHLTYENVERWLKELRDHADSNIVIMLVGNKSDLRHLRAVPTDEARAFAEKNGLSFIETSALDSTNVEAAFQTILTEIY
# Procedure: as §1
# [3] = biological target: T3, H6-RAB25:bio-RFP14 complex (Homo sapiens, UniProt P57735); experiment: ALPHAscreen competitive inhibition of RAB25:RFP14 complex formation; assay type: binding; settings: H6-RAB25 0.2 μM and bio-RFP14 0.2 μM, mean with 95% C.I., triplicate
# T3 construct: His6-RAB25 (1–180) in pET28; made in house; host or cells: E. coli BL21
# T3 sequence (P57735 1-180): T1 sequence (P57735 1-180)
# MCF7 cells = experiment: Confocal fluorescence microscopy for peptide cellular penetration; assay type: in vitro ADME; settings: 5 μM FITC-labeled peptide, 10% FBS-containing RPMI, 8 h, 37 °C
# Procedure: MCF7 cells were grown in 8-well chamber slides (Ibidi) and treated with FITC-labeled RFPs (5 μM) in 10% FBS-containing RPMI for 8 h at 37 °C. Cells were washed 5× in PBS, fixed in 2% paraformaldehyde/PBS and stained with DAPI according to the manufacturer’s protocol (Sigma). A coverslip was mounted onto the slide and confocal fluorescence microscopy performed with an Olympus DSU spinning disk confocal microscope (Olympus Corporation of the Americas, Center Valley, PA) with a Hamamatsu model C9100 EM-CCD camera (Hamamatsu Photonics, Skokie, IL) run by SlideBook v5.0 software (Intelligent Imaging Innovations, Denver, CO). Post-acquisition processing (multi-channel overlay) was performed using ImageJ software (NIH). Results are representative of images taken from three fields across the same well in at least two biological replicates.
# [4] = biological target: T4, GST-RAB11a (1–173, Q70L mutant) (UniProt P62491 1-173, Q70L); experiment: fluorescence polarisation; FITC-peptide 25 nM with threefold dilutions of GST-RAB protein; 20 mM Tris pH 8.0, 150 mM NaCl, 5 mM MgCl2, 2 mM DTT, 10 μM GTP, 2% glycerol; room temperature, 30 min; apparent Kd; settings: both partners purified
# T4 construct: vector pGEX5x-1; 10 μM GTP in the assay buffer; source: BL21 cells, purified (glutathione sepharose, Superdex 75 gel filtration)
# T4 sequence (looked up): T2 sequence (P62491 1-173 Q70L)
# His6-RAB25 (1–180) [5] = biological target: T5, His6-RAB25 (1–180) (UniProt P57735 1-180); experiment: competition with bio-RFP14 (ALPHAscreen)
# T5 chain: T1 sequence (P57735 1-180)
# His6-RAB25 (1–180) [6] = biological target: T6, His6-RAB25 (1–180) (UniProt P57735 1-180); experiment: AlphaScreen or HTRF; competition: soluble peptide or protein at varied concentration with biotin-RFP14 and H6-RAB25 (0.2 μM each); streptavidin donor and Ni2+-NTA acceptor beads; FP buffer with 0.1% BSA; room temperature; settings: both partners purified
# T6 construct: RAB25, residues 1-180; vector pET28; also called H6-RAB25; His6-labeled RAB25; source: BL21 cells, purified (Ni-NTA, Superdex 75 gel filtration)
# T6 sequence (looked up): T1 sequence (P57735 1-180)
# [7] = biological target: T7, GST-RAB11a (1-173, Q70L mutant) (UniProt P62491 1-173, Q70L); experiment: fluorescence polarisation; as for RFP1-13 but FITC-ligand 10 nM, with threefold dilutions of GST-RAB protein; 20 mM Tris pH 8.0, 150 mM NaCl, 5 mM MgCl2, 2 mM DTT, 10 µM GTP, 2% glycerol; room temperature, 30 min; apparent Kd from a sigmoidal (4-parameter) fit, 95% confidence interval; settings: both partners purified
# T7 construct: source: E. coli BL21, purified (glutathione sepharose, Superdex 75 gel filtration)
# T7 sequence (looked up): T2 sequence (P62491 1-173 Q70L)
# GST-RAB25 (1-180) = biological target: T8, GST-RAB25 (1-180) (UniProt P57735 1-180); experiment: as above; settings: both partners purified
# T8 construct: RAB25, residues 1-180, in pET41 Ek/LIC; source: E. coli BL21, purified (glutathione sepharose, Superdex 75 gel filtration)
# T8 sequence (looked up): T1 sequence (P57735 1-180)
molecule,measurement,setting,value
KQEEINFRLQDYIDRIIVAIMETNPSILEVK-NH2 (C-terminus assumed) [RFP3],binding to RAB25 (in words),RAB25,micromolar affinities
same,"CD spectrum, secondary structure",[1],β-sheet
same,binding to RAB11a (in words),[2],micromolar affinities
CC[C@H](C)[C@H](NC(=O)[C@H](CCCNC(=N)N)NC(=O)[C@H](C)NC(=O)[C@H](C)NC(=O)[C@]1(C)CCCC=CCCC[C@](C)(NC(=O)[C@H](CC(N)=O)NC(=O)[C@H](CCC(N)=O)NC(=O)[C@H](CC(C)C)NC(=O)[C@H](CCCNC(=N)N)NC(=O)[C@H](Cc2ccccc2)NC(=O)[C@H](CC(N)=O)NC(=O)[C@@H](NC(=O)[C@H](CCCNC(=N)N)NC(=O)CCNC(=O)[C@@H](N)Cc2c[nH]c3ccccc23)[C@@H](C)CC)C(=O)N[C@@H]([C@@H](C)CC)C(=O)N[C@@H](CC(=O)O)C(=O)N[C@@H](CCCNC(=N)N)C(=O)N1)C(=O)N[C@@H](C)C(=O)N[C@@H](CCC(=O)O)C(=O)N[C@H](C(=O)N[C@@H](CC(N)=O)C(=O)N1CCC[C@H]1C(=O)N[C@@H](CO)C(=O)N[C@H](C(=O)N[C@@H](CC(C)C)C(=O)N[C@@H](CCC(=O)O)C(=O)N[C@H](C(=O)N[C@@H](CCCCN)C(N)=O)C(C)C)[C@@H](C)CC)[C@@H](C)O [RFP31] (H-W[βAla]RINFRLQN[S5]IDR[S5]AARIAETNPSILEVK-NH2; staple 11-15),Kd,RAB25,> 5000 nM
same,IC50,[3],3300 nM
same,Kd,"[2]; 10 nM FITC-ligand, GST-RAB11a (1–173, Q70L), FP buffer pH 8.0 with 10 μM GTP, mean with 95% C.I., triplicate, read-out: apparent Kd (95% C.I.) RAB11a",> 5000 nM
CCCC[C@@H]1NC(=O)[C@H](C(C)C)NC(=O)[C@@](C)(NC(=O)[C@@H](NC(=O)[C@H](CC(C)C)NC(=O)[C@H](CC(C)C)NC(=O)[C@H](CCCNC(=N)N)NC(=O)[C@H](CC(=O)O)NC(=O)[C@@H](NC(=O)[C@H](Cc2ccc(O)cc2)NC(=O)[C@H](CC(N)=O)NC(=O)[C@H](CCC(=O)O)NC(=O)[C@H](CC(C)C)NC(=O)[C@H](CCC(=O)O)NC(=O)[C@H](CCCNC(=N)N)NC(=O)[C@@H](NC(=O)[C@H](CCC(N)=O)NC(=O)[C@H](CCCNC(=N)N)NC(=O)CCNC(=O)[C@@H](N)Cc2c[nH]c3ccccc23)C(C)C)[C@@H](C)CC)C(C)C)CCCC=CCCC[C@@](C)(C(=O)N[C@H](C(=O)N2CCC[C@H]2C(=O)N[C@@H](CC(N)=O)C(=O)N[C@H](C(=O)N[C@@H](CC(C)C)C(=O)N[C@@H](CCCNC(=N)N)C(=O)N[C@H](C(=O)N2CCC[C@H]2C(=O)N[C@@H](CCCNC(=N)N)C(N)=O)[C@@H](C)CC)[C@@H](C)CC)[C@@H](C)O)NC(=O)[C@H](CCC(=O)O)NC1=O [RFP14] (H-W[βAla]RQVRELENYIDRLLV[S5]V[Nle]E[S5]TPNILRIPR-NH2; staple 18-22),Kd,RAB25,40 nM
same,cellular uptake and distribution,MCF7 cells,significant cellular uptake and distribution throughout the cytosol and nucleus
same,cellular uptake and distribution,MCF7 cells; listed as FITC-RFP14,comparable cellular uptake
RFP4: unmodified FIP4 peptide ({FITC-PEG}-EQEEINFRLRQYMDKIILAILDHNPSILEIKH; reading uncertain),binding to RAB25 (in words),RAB25,micromolar affinities
same,"CD spectrum, secondary structure",[1],partially disordered peptide folds
same,binding to RAB11a (in words),[2],micromolar affinities
{FITC-monoethylene glycol}-KQEEINFRLQDYIDRIIVAI[Met(O)]ETNPSILEVK [RFP5],fold lower affinity than the unoxidised peptide,[4],~5 fold
B1,IC50,His6-RAB25 (1–180) [5],> 10000 nM
same,binding result,His6-RAB25 (1–180) [6],binds
"{FITC-PEG-βAla}-RINFRLQN[S5]IDR[S5]IVRI[Nle]ETNPSILRVK (staple 9-13; reading uncertain) [FITC-RFP26 (optimized stapled peptide, 'IDR' staple)]",Kd,[7],90 nM
same,Kd,GST-RAB25 (1-180),20 nM
